“And” between values parts separate entries of the source, which are not always exact repeats. Identical values can stand only once. Toxic doses and inconclusive results are not listed. Rule as the data show it: active = T/C of 150% or more; inactive = T/C below 125%.
Test system: L1210 leukemia ip in BDF1 mice, survival T/C
Assay: NCI In Vivo Anticancer Drug Screen. Data for tumor model L1210 Leukemia (intraperitoneal) in B6D2F1 (BDF1) mice
Conditions: endpoint: mean survival time, higher = longer survival
Outline: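 Value reflects the ratio of survival in compound-treated mice to survival in vehicle-treated controls, with both groups carrying the same transplanted tumor.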

[1] = dose: 100.0 mg/kg/injection, schedule: Q01DX001 (ip), vehicle: saline with Tween-80
[2] = dose: 100.0 mg/kg/injection, schedule: Q01DX001 (ip), vehicle: Klucel (hydroxypropylcellulose) (HPC)
[3] = dose: 200.0 mg/kg/injection, schedule: Q01DX001 (ip), vehicle: Klucel (hydroxypropylcellulose) (HPC)
[4] = dose: 12.5 mg/kg/injection, schedule: Q04DX003 (ip), vehicle: saline with Tween-80
[5] = dose: 25.0 mg/kg/injection, schedule: Q04DX003 (ip), vehicle: saline with Tween-80

Measured: T/C

O=C(Cc1cccc([N+](=O)[O-])c1)Nc1ccc(S(=O)(=O)F)cc1
inactive: dose: 100.0 mg/kg/injection, schedule: Q01DX001 (ip), vehicle: saline 112 % of control | dose: 200.0 mg/kg/injection, schedule: Q01DX001 (ip), vehicle: saline 111 % of control | dose: 400.0 mg/kg/injection, schedule: Q01DX001 (ip), vehicle: saline 110 % of control

O=c1[nH]c(=O)n(CCc2cccs2)cc1F
inactive: dose: 100.0 mg/kg/injection, schedule: Q01DX009 (ip), vehicle: saline with Tween-80 98 % of control | dose: 100.0 mg/kg/injection, schedule: Q04DX003 (ip), vehicle: saline with Tween-80 93 % of control | dose: 200.0 mg/kg/injection, schedule: Q01DX009 (ip), vehicle: saline with Tween-80 96 % of control | dose: 200.0 mg/kg/injection, schedule: Q04DX003 (ip), vehicle: saline with Tween-80 96 % of control | dose: 400.0 mg/kg/injection, schedule: Q01DX009 (ip), vehicle: saline with Tween-80 98 % of control | dose: 400.0 mg/kg/injection, schedule: Q04DX003 (ip), vehicle: saline with Tween-80 95 % of control

CCOC(=O)CCCl
inactive: dose: 75.0 mg/kg/injection, schedule: Q01DX009 (ip), vehicle: Klucel (hydroxypropylcellulose) (HPC) 94 % of control | dose: 75.0 mg/kg/injection, schedule: Q04DX003 (ip), vehicle: saline 117 % of control | dose: 150.0 mg/kg/injection, schedule: Q01DX009 (ip), vehicle: Klucel (hydroxypropylcellulose) (HPC) 96 % of control | dose: 300.0 mg/kg/injection, schedule: Q01DX009 (ip), vehicle: Klucel (hydroxypropylcellulose) (HPC) 97 % of control | dose: 300.0 mg/kg/injection, schedule: Q04DX003 (ip), vehicle: saline 97 % of control

CCC(=O)C(CCN(C)C)(c1ccccc1)c1ccccn1 (stereo not given)
inactive: dose: 44.0 mg/kg/injection, schedule: Q01DX Z (ip), vehicle: saline 98 % of control | dose: 66.0 mg/kg/injection, schedule: Q01DX Z (ip), vehicle: saline 104 % of control

CCCCCCCCCCCCCCC
inactive: [1] 107 % of control | dose: 200.0 mg/kg/injection, schedule: Q01DX001 (ip), vehicle: saline with Tween-80 95 % of control | dose: 400.0 mg/kg/injection, schedule: Q01DX001 (ip), vehicle: saline with Tween-80 91 % of control

O=C(CC(=O)c1cccc(NC(=O)CC(/C=C/C=C/CCCCCCCCCCCCCCCCC2CC(=O)OC2=O)C(=O)O)c1)Nc1ccccc1 (stereo not given)
inactive: dose: 75.0 mg/kg/injection, schedule: Q04DX003 (ip), vehicle: Klucel (hydroxypropylcellulose) (HPC) 94 % of control | [2] 90 % of control | dose: 150.0 mg/kg/injection, schedule: Q04DX003 (ip), vehicle: Klucel (hydroxypropylcellulose) (HPC) 95 % of control | [3] 90 % of control | dose: 300.0 mg/kg/injection, schedule: Q04DX003 (ip), vehicle: Klucel (hydroxypropylcellulose) (HPC) 103 % of control | dose: 400.0 mg/kg/injection, schedule: Q01DX001 (ip), vehicle: Klucel (hydroxypropylcellulose) (HPC) 87 % of control

CC(C)C[As](=O)(O)O
inactive: dose: 100.0 mg/kg/injection, schedule: Q04DX003 (ip), vehicle: Klucel (hydroxypropylcellulose) (HPC) 106 % of control | dose: 200.0 mg/kg/injection, schedule: Q04DX003 (ip), vehicle: Klucel (hydroxypropylcellulose) (HPC) 95 % of control

O=C1NC(=O)C(=Cc2cc(Br)ccc2[N+](=O)[O-])C(=O)N1
inactive: dose: 100.0 mg/kg/injection, schedule: Q01DX001 (ip), vehicle: carboxymethylcellulose (CMC) 91 % of control | dose: 200.0 mg/kg/injection, schedule: Q01DX001 (ip), vehicle: carboxymethylcellulose (CMC) 104 % of control | dose: 400.0 mg/kg/injection, schedule: Q01DX001 (ip), vehicle: carboxymethylcellulose (CMC) 91 % of control

COc1cccc2c1C(=O)c1c(O)c3c(c(O)c1C2=O)C[C@@](O)(/C(C)=N/NS(C)(=O)=O)C[C@@H]3OC1CC(N)C(O)C(C)O1 (stereo not given in full)
inactive: dose: 0.25 mg/kg/injection, schedule: Q04DX003 (ip), vehicle: water 103 % of control | dose: 0.5 mg/kg/injection, schedule: Q04DX003 (ip), vehicle: water 103 % of control | dose: 1.0 mg/kg/injection, schedule: Q04DX003 (ip), vehicle: water 103 % of control | dose: 2.0 mg/kg/injection, schedule: Q04DX003 (ip), vehicle: water 105 % of control | dose: 4.0 mg/kg/injection, schedule: Q01DX009 (ip), vehicle: water 105 % of control | dose: 4.0 mg/kg/injection, schedule: Q04DX003 (ip), vehicle: water 107 % of control | dose: 8.0 mg/kg/injection, schedule: Q01DX009 (ip), vehicle: water 113 % of control | dose: 8.0 mg/kg/injection, schedule: Q04DX003 (ip), vehicle: water 101 % of control and 113 % of control | dose: 16.0 mg/kg/injection, schedule: Q01DX009 (ip), vehicle: water 121 % of control | dose: 16.0 mg/kg/injection, schedule: Q04DX003 (ip), vehicle: water 104 % of control and 115 % of control | dose: 64.0 mg/kg/injection, schedule: Q01DX009 (ip), vehicle: water 97 % of control

O=C1N(c2ccccc2)P(Cl)(Cl)(Cl)N1c1ccccc1
inactive: dose: 100.0 mg/kg/injection, schedule: Q04DX002 (ip), vehicle: Klucel (hydroxypropylcellulose) (HPC) 93 % of control | dose: 200.0 mg/kg/injection, schedule: Q04DX002 (ip), vehicle: Klucel (hydroxypropylcellulose) (HPC) 110 % of control | dose: 400.0 mg/kg/injection, schedule: Q04DX002 (ip), vehicle: Klucel (hydroxypropylcellulose) (HPC) 93 % of control

COP(=O)(OC)OC=C(Cl)Cl
inactive: dose: 25.0 mg/kg/injection, schedule: Q04DX002 (ip), vehicle: saline 94 % of control | dose: 50.0 mg/kg/injection, schedule: Q04DX002 (ip), vehicle: saline 105 % of control | dose: 100.0 mg/kg/injection, schedule: Q04DX002 (ip), vehicle: saline 98 % of control

N#[N+]c1n[nH]nc1C(N)=O
inactive: dose: 25.0 mg/kg/injection, schedule: Q01DX Z (ip), vehicle: carboxymethylcellulose (CMC) 97 % of control | dose: 35.0 mg/kg/injection, schedule: Q01DX Z (ip), vehicle: carboxymethylcellulose (CMC) 95 % of control

Cn1[nH]c(NC=O)c2cc3c(=O)[nH]c(=O)cc3nc21
inactive: [2] 93 % of control | [3] 90 % of control

CCCCCCCCOc1ccc(C=Nc2ccc(CC)cc2)cc1
inactive: dose: 100.0 mg/kg/injection, schedule: Q01DX009 (ip), vehicle: Klucel (hydroxypropylcellulose) (HPC) 97 % of control | dose: 200.0 mg/kg/injection, schedule: Q01DX009 (ip), vehicle: Klucel (hydroxypropylcellulose) (HPC) 86 % of control | dose: 400.0 mg/kg/injection, schedule: Q01DX009 (ip), vehicle: Klucel (hydroxypropylcellulose) (HPC) 91 % of control

O=C1C(=C(C(F)(F)F)C(F)(F)F)C2CCC1C2 (stereo not given)
inactive: dose: 6.25 mg/kg/injection, schedule: Q01DX009 (ip), vehicle: saline with Tween-80 93 % of control | dose: 6.25 mg/kg/injection, schedule: Q04DX003 (ip), vehicle: saline with Tween-80 114 % of control | dose: 12.5 mg/kg/injection, schedule: Q01DX009 (ip), vehicle: saline with Tween-80 93 % of control | [4] 92 % of control | [5] 96 % of control

CC[PH+]1c2ccccc2-c2ccccc21.CC[PH+]1c2ccccc2-c2ccccc21.CC[PH+]1c2ccccc2-c2ccccc21.[Br][Ni][Br]
inactive: [4] 98 % of control | [5] 98 % of control | dose: 50.0 mg/kg/injection, schedule: Q04DX003 (ip), vehicle: saline with Tween-80 102 % of control

CC1C(=O)Nc2ccccc2N1C(=O)CN1CCCC1 (stereo not given)
inactive: dose: 50.0 mg/kg/injection, schedule: Q01DX009 (ip), vehicle: saline 98 % of control | dose: 100.0 mg/kg/injection, schedule: Q01DX009 (ip), vehicle: saline 101 % of control | dose: 100.0 mg/kg/injection, schedule: Q04DX003 (ip), vehicle: saline 96 % of control | dose: 200.0 mg/kg/injection, schedule: Q01DX009 (ip), vehicle: saline 106 % of control | dose: 200.0 mg/kg/injection, schedule: Q04DX003 (ip), vehicle: saline 96 % of control | dose: 400.0 mg/kg/injection, schedule: Q04DX003 (ip), vehicle: saline 94 % of control

CC(=O)N=C(N)N(/N=C(C)\C=N\N(C(C)=O)C(N)=NC(C)=O)C(C)=O
inactive: dose: 15.0 mg/kg/injection, schedule: Q01DX Z (ip), vehicle: carboxymethylcellulose (CMC) 96 % of control | dose: 30.0 mg/kg/injection, schedule: Q01DX Z (ip), vehicle: carboxymethylcellulose (CMC) 96 % of control | dose: 60.0 mg/kg/injection, schedule: Q01DX Z (ip), vehicle: carboxymethylcellulose (CMC) 93 % of control and 91 % of control | dose: 120.0 mg/kg/injection, schedule: Q01DX Z (ip), vehicle: carboxymethylcellulose (CMC) 97 % of control and 90 % of control | dose: 240.0 mg/kg/injection, schedule: Q01DX Z (ip), vehicle: carboxymethylcellulose (CMC) 92 % of control | dose: 480.0 mg/kg/injection, schedule: Q01DX Z (ip), vehicle: carboxymethylcellulose (CMC) 94 % of control

CC(=O)OC(CC[P+](c1ccccc1)(c1ccccc1)c1ccccc1)(C(=O)c1ccccc1)c1ccccc1 (stereo not given)
inactive: [1] 95 % of control

Reference: PubChem BioAssay AID248 (DTP/NCI, 2004)
